# According to patent US20120315290A1, “INHIBITORS OF LL-37 MEDIATED IMMUNE REACTIVITY TO SELF NUCLEIC ACIDS” (BOARD OF REGENTS, THE UNIVERSITY OF TEXAS SYSTEM, priority 2006, published 2012):
# What was measured:
# [1] = tested on: plasmacytoid dendritic cells (pDC); assay: IFN-α and cytokine production by purified human pDC (ELISA of supernatants); type: cell-based
# Source text: PDC from healthy donors were purified from freshly collected buffy coats. Briefly, PBMC were isolated by Ficoll-Hypaque density gradient centrifugation (GE Healthcare, Piscatway, N.J.) followed by positive sorting using anti-BDCA4-conjugated magnetic microbeads (Miltenyi Biotec, Auburn, Calif.). The recovered cells were stained with PE-Cy5-conjugated anti-CD4, APC-conjugated CD11c, and a cocktail of FITC-conjugated anti-CD3, anti-CD14, anti-CD16, anti-CD15, anti-CD20 and anti-CD56 (Lineage-FITC) (BD Pharmingen, San Diego, Calif.). The CD4+CD11c-Lin- (pDC precursors) were isolated by cell sorting. Purity was routinely >99%. PDC (5-10×10^4/well) were cultured in 96-well round-bottom plates in RPMI 1640 (GIBCO, Carlsbad, Calif.) supplemented with 10% FCS (Atlanta Biologicals, Lawrenceville, Ga.). Where indicated, pDC were stimulated with CpGA (1 μM), CpGB (1 μM), R837 (10 ug/ml), IRS (4 uM), non-CpG sequence (4 uM), and different concentrations of LL-37 and of human genomic DNA. To prepare LL-37.DNA complexes, CpGB, huDNA, non-CpG and LL-37 were mixed by inversion and incubated for 30 min at room temperature before being added to the cells.
# Supernatants samples were taken after 18-24 h after addition of the stimuli. Human IFN-α was measured using a human IFN-α ELISA kit (PBL Biomedical Laboratories, New Brunswick, N.J.) according to the company's instructions. IL-6 and TNF-α were detected using a kit for human IL6 and TNF-α (R&D Systems), respectively.
# human genomic DNA = assay: Complex formation with DNA (ethidium bromide intercalation, size exclusion HPLC); type: binding
# Source text: (A) Emission spectra of human genomic DNA intercalated with Ethimidium bromide in the presence of increasing doses of LL-37. (B) Size exclusion HPLC of LL-37 alone, mut-LL-37 alone or DNA premixed with LL-37 or mut-37. […] Absorbance scales are different to accommodate the DNA peak.
# [2] = tested on: myeloid (monocyte-derived) DC; assay: Myeloid DC maturation (CD80) and cytokine secretion; type: cell-based, human; settings: RNA 10 μg ml^−1 premixed with LL-37 (10 μM), overnight culture
# Method: (§1) Myeloid (monocyte-derived) DC were stimulated with RNA isolated from U937 cells (human RNA) or a synthetic single-stranded RNA sequence derived from HIV (ssRNA40) and a known TL-7/8 ligand either alone (10 pg ml^−1) or after premixing with LL-37 (10 μM). (a) Maturation was assessed by flow cytometry analysis of CD80 after overnight culture.
# as §1, with “In a second set of experiments, myeloid” for “Myeloid”, “TLR-7/8” for “TL-7/8”, “μg” for “pg”, “μM).” for “μM). (a)”, “culture (FIG. 21A). Levels of TNF-α, IL-6, EL-12, and IL-23 were measured after overnight culture (FIG. 21B).” for “culture.”
# B16-OVA tumor = assay: Vaccination of mice bearing established B16-OVA melanoma, tumor size; type: in vivo, C57BL/6 mice; settings: mixed with irradiated B16-OVA
# Method: Mice bearing a 7-d subcutaneous B16 melanoma transfected with a gene encoding OVA (B16-OVA) were vaccinated subcutaneously with 1) LL-37 alone; irradiated B16-OVA tumor (iB16-OVA); irradiated B16-OVA tumor mixed with […] CpG-2216 (iB16-OVA+CpG); irradiated B16-OVA tumor with […] LL-37 (iB16-OVA+LL-37). Tumor size was monitored by caliper every second day. Data represent mean of 4 mice per group.
# We also performed vaccine studies using the B16 tumor model of melanoma, B16 is a highly aggressive tumor with low immunogenicity. B16 tumor cells can be transfected with ovalbumin (OVA) to provide an immunogen that allows easy tracking of the anti-tumor immune response. 3×10^5 B16-OVA tumor cells were implanted subcutaneously in the flank of C57BL/6 mice and allowed to grow. Seven days later mice were treated with a single subcutaneous injection of LL-37 mixed with irradiated B16-OVA tumor cells. Control injections included LL-37 alone, irradiated B16-OVA alone, or irradiated B16-OVA mixed with the synthetic TLR9 agonist CpG. A detailed method on the generation of these vaccines is provided in D2.1. Tumor size was monitored with a caliper and volumes estimated using the formula […]. The experiment was stopped 10 days after injection because all mice in the control group had died or their tumor had reached 20 mm in their maximal diameter.
sequence,measurement,setting,value
LLGDFFRKSKEKIGKEFKRIVQRIKDFLRNLVPRTES [LL-37],IFN-α in pDC stimulated with non-CpG-ODN sequences plus LL-37,[1],induce significant levels of IFN-α
same,"IFN-α production by pDC stimulated with nucleic acid alone or combined with LL-37, as labelled",[1],converts genomic DNA of human and bacterial origin into potent IFN-α inducers
same,IL-6 production by pDC,[1]; LL-37 10 μM,only induced IFN-α but not IL-6 or TNF-α
same,TNF-α production by pDC,[1]; LL-37 10 μM,only induced IFN-α but not IL-6 or TNF-α
same,IFN-α by pDC relative to phosphothiorate CpG-B alone,[1]; LL-37 added to phosphodiesteric or phosphothiorate CpG-B,approximately 10 fold
same,IFN-α produced by pDC (mean),"[1]; pDC cultured with LL-37, 10% serum in culture medium, n=10",950 pg/ml
same,IFN-α produced by pDC (range),"[1]; pDC cultured with LL-37, n=10",200-4000 pg/ml
same,Complex formation with DNA,human genomic DNA,complexed with DNA
same,Myeloid DC maturation and cytokine secretion,[2],converts self-RNA and viral RNA into activator of myeloid DC maturation and cytokine secretion
same,Adjuvant potency compared to CpGs (CpG-2216),B16-OVA tumor,more potent than CpGs
